# Data reported in EP2054420B1, “BENZIMIDAZO[1,2-C][1,2,3]THIADIAZOL-7-SULFONAMIDES AS INHIBITORS OF CARBONIC ANHYDRASE AND THE INTERMEDIATES FOR PRODUCTION THEREOF” (Biotechnologijos Institutas, priority 2006, dated 2008).
# Molecular target: bovine carbonic anhydrase II (Bos taurus, UniProt P00921)
# Assay: fluorescent thermal shift assay (ANS probe)
# Type: binding
# Details: upon increasing concentration of the inhibitor; Figure 3
# Description: Example 19. Determination of the observed binding constants by the fluorescent thermal shift assay.
# Inhibitor binding to carbonic anhytdrases was also measured by the fluorescent thermal shift assay, which employs 1-anilino-8-naphthalene sulfonate (ANS) probe that visualizes enzyme thermal stabilization by the inhibitor thus determining the binding constant.
# Resultant data is consistent with the isothermal titration calorimetry data in determining the observed binding constants of the inhibitors.
# Chain of bovine carbonic anhydrase II (P00921 whole entry): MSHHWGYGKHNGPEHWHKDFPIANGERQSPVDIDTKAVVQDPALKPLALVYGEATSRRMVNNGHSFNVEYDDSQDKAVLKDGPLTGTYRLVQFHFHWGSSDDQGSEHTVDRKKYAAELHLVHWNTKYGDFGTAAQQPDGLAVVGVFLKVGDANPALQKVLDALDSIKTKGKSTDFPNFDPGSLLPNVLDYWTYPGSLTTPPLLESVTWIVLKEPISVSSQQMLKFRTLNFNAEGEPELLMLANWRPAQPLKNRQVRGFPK
structure (smiles),measurement,value
"NS(=O)(=O)c1ccc2nc3n(c2c1)N=S=C3N1CCOCC1 [compound 4, 3-morpholinbenzimidazo[1,2-c][1,2,3]thiadiazol-7-sulfonamide]",melting temperature (Tm),Tm increase
